Assay results: US20100279997A1, “ANALGESIC THAT BINDS FILAMIN A” (priority 2009, published 2010)
Read-outs that look alike come from different tables or passages of the source.

How the values were obtained:
[1] = biological target: Bn-VAKGL pentapeptide of filamin A (FLNA) (Homo sapiens, UniProt P21333); assay: FITC-NLX-based FLNA screening assay (FLNA peptide binding assay)
Protocol: The final assay volume is 100 μl.
Compounds are tested in triplicate or quadruplicate.

μ opiate receptor (MOR) = biological target: T1, μ opiate receptor (MOR) (Rattus norvegicus, UniProt P33535); assay: MOR agonist activity, [35S]GTPγS binding assay using striatal membranes; assay type: biochemical; conditions: for [35S]GTPγS binding to Gαo, FLNA-binding compound as agonist 0.1 μM: 0.1 μM compound; for [35S]GTPγS binding to Gαo, FLNA-binding compound as agonist 0.1 μM / [35S]GTPγS binding to Gαo, FLNA-binding compound as agonist 1 μM: striatal membranes; for [35S]GTPγS binding to Gαo, FLNA-binding compound as agonist 1 μM + BFNA: 1 μM compound + 1 μM β-funaltrexamine; for [35S]GTPγS binding to Gαo, FLNA-binding compound as agonist 1 μM: 1 μM compound; for % DAMGO + BFNA: relative to DAMGO + BFNA; for % DAMGO (0.1 μM) / % DAMGO (1 μM): relative to DAMGO
T1 construct: from tissue; host or cells: striatal tissue (membrane preparation)
Protocol: To assess the μ opiate receptor (MOR) agonist activity of positive compounds from the FLNA screening, compounds were tested in a [^35S]GTPγS binding assay using striatal membranes.
Striatal tissue was homogenized in 10 volumes of ice cold 25 mM HEPES buffer, pH 7.4, which contained 1 mM EGTA, 100 mM sucrose, 50 μg/ml leupeptin, 0.04 mM PMSF, 2 μg/ml soybean trypsin inhibitor and 0.2% 2-mercaptoethanol. The homogenates were centrifuged at 800×g for 5 minutes and the supernatants were centrifuged at 49,000×g for 20 minutes. The resulting pellets were suspended in 10 volume of reaction buffer, which contained 25 mM HEPES, pH 7.5, 100 mM NaCl, 50 μg/ml leupeptin, 2 μg/ml soybean trypsin inhibitor, 0.04 mM PMSF and 0.02% […].
The resultant striatal membrane preparation (200 μg) was admixed and maintained (incubated) at 30° C. for 5 minutes in reaction buffer as above that additionally contained 1 mM MgCl2 and 0.5 nM [^35S]GTPγS (0.1 μCi/assay, PerkinElmer Life and Analytical Sciences) in a total volume of 250 μl and continued for 5 minutes in the absence or presence of 0.1-10 μM of an assayed compound of interest. The reaction was terminated by dilution with 750 μl of ice-cold reaction buffer that contained 20 mM MgCl2 and 1 mM EGTA and immediate centrifugation at 16,000×g for 5 minutes.
The resulting pellet was solubilized by sonicating for 10 seconds in 0.5 ml of immunoprecipitation buffer containing 0.5% digitonin, 0.2% sodium cholate and 0.5% NP-40. Normal rabbit serum (1 μl) was added to 1 ml of lysate and incubated at 25° C. for 30 minutes. Nonspecific immune complexes were removed by incubation with 25 μl of protein A/G-conjugated agarose beads at 25° C. for 30 minutes followed by centrifugation at 5,000×g at 4° C. for 5 minutes. The supernatant was divided and separately incubated at 25° C. for 30 minutes with antibodies raised against Gao proteins (1:1,000 dilutions).
The immunocomplexes so formed were collected by incubation at 25° C. for 30 minutes with 40 μl of agarose-conjugated protein A/G beads and centrifugation at 5,000×g at 4° C. for 5 minutes. The pellet was washed and suspended in buffer containing 50 mM Tris-HCl, pH 8.0, and 1% NP-40. The radioactivity in the suspension was determined by liquid scintillation spectrometry. […] DAMGO (H-Tyr-D-Ala-Gly-N-MePhe-Gly-OH; 1 or 10 μM) was used as a positive control.

[2] = read-out: Percent inhibition of FITC-NLX binding, 0.01 μM
[3] = read-out: Percent inhibition of FITC-NLX binding, 0.1 μM
[4] = read-out: Percent inhibition of FITC-NLX binding, 1 μM
[5] = read-out: Percent inhibition of FITC-NLX binding, 0.01 μM, 0.01 μM compound, 10 nM FITC-NLX
[6] = read-out: Percent inhibition of FITC-NLX binding, 0.1 μM, 0.1 μM compound, 10 nM FITC-NLX
[7] = read-out: Percent inhibition of FITC-NLX binding, 1 μM, 1 μM compound, 10 nM FITC-NLX

T1 sequence (P33535 whole entry): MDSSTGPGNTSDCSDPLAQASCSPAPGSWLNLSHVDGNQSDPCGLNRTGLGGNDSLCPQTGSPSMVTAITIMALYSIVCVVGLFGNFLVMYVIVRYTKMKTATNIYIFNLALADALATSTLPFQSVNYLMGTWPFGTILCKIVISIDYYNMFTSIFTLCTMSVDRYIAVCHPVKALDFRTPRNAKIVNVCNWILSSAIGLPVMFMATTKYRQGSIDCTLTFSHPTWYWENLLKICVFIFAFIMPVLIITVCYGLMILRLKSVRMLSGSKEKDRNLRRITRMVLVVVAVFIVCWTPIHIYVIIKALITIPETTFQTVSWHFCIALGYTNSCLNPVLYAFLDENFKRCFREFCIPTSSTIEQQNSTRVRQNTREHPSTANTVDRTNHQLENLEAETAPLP

| SMILES | inhibition at 0.01 µM [1, 2] | inhibition at 0.1 µM [1, 3] | inhibition at 1 µM [1, 4] | [35S]GTPγS binding to Gαo, FLNA-binding compound as agonist 0.1 μM (μ opiate receptor (MOR)) | [35S]GTPγS binding to Gαo, FLNA-binding compound as agonist 1 μM + BFNA (μ opiate receptor (MOR)) | [35S]GTPγS binding to Gαo, FLNA-binding compound as agonist 1 μM (μ opiate receptor (MOR)) | % DAMGO + BFNA (μ opiate receptor (MOR)) | % DAMGO (0.1 μM) (μ opiate receptor (MOR)) | % DAMGO (1 μM) (μ opiate receptor (MOR)) | inhibition at 0.01 µM [1, 5] | inhibition at 0.1 µM [1, 6] | inhibition at 1 µM [1, 7] |
| --- | --- | --- | --- | --- | --- | --- | --- | --- | --- | --- | --- | --- |
| OC(CN1CCc2ccccc2C1)OCc1ccc(Br)c(F)c1 (stereo not drawn) [Compound A0057] | 29.1% | 37% | 43.4% | 124.2% | 44.8% | 192.1% | 112.3% | 79.6% | 83.3% | – | – | – |
| COc1ccc(OCC(O)CN2CCC(=O)CC2)cc1 (stereo not drawn) [Compound A0071] | – | – | – | 225.7% | 239.4% | 310.9% | 1088.2% | 128.2% | 122.9% | 44.7% | 46.8% | 53.9% |
| COc1ccc(OCC(O)CN2CCN(Cc3ccccc3)CC2)cc1 (stereo not drawn) [Compound A0073] | 47.3% | 54.8% | 59.7% | 201.7% | 185.8% | 325.7% | 344.7% | 100.5% | 103.7% | – | – | – |
| OC(COc1ccc(Br)c(F)c1)CN1CCN(CCN2CCOCC2)CC1 (stereo not drawn) [Compound A0063] | 21.2% | 31% | 38.8% | 122.8% | 310% | 245.8% | 77.7% | 78.7% | 106.6% | – | – | – |
| CC1CCC(C(C)C)C(OCC(O)CN2CCOc3ccccc32)C1 (stereo not drawn) [Compound A0066] | – | – | – | 151.9% | 59.2% | 195.6% | 171.6% | 88.3% | 89.0% | 36.7% | 45.4% | 53.7% |
| COc1ccc(OCC(O)CN2CCc3ccccc32)cc1 (stereo not drawn) [Compound A0069] | 32% | 40.4% | 46.1% | – | – | – | – | – | – | – | – | – |
| CC1CCC(C(C)C)C(OCC(O)CN2CCCC2=O)C1 (stereo not drawn) [Compound A0035] | – | – | – | 120.6% | 88.6% | 158.8% | – | – | – | – | – | – |
| CC1CCC(C(C)C)C(OCC(O)CN2CCCCC2C)C1 (stereo not drawn) [Compound A0007] | – | – | – | 102.0% | 40.4% | 221.9% | – | – | – | – | – | – |
| CC1CCC(C(C)C)C(OCC(O)CN2CCCN(C)CC2)C1 (stereo not drawn) [Compound A0010] | – | – | – | 277.2% | 190.3% | 319.0% | – | – | – | – | – | – |
| CC1CCC(C(C)C)C(OCC(O)CN2CCc3ccccc3C2)C1 (stereo not drawn) [Compound A0040] | – | – | – | 46.1% | 16.7% | 149.0% | – | – | – | – | – | – |
| CC1CCC(C)C(OCC(O)CN2CC(C)OC(C)C2)C1 (stereo not drawn) [Compound A0022] | – | – | – | 154.1% | 28.0% | 216.0% | – | – | – | – | – | – |
| OC(COc1cccc(F)c1)CN1CCc2ccccc2C1 (stereo not drawn) [Compound A0055] | – | – | – | 89.8% | 33.5% | 195.2% | – | – | – | – | – | – |
| CC1CCC(C(C)C)C(OCC(O)CN2CC(C)OC(C)C2)C1 (stereo not drawn) [Compound A0032-1] | – | – | – | 187.4% | 224.5% | 324.5% | 303.8% | 95.5% | 117.6% | – | – | – |
| CC1CCC(C(C)C)C(OCC(O)CN2CCOCC2)C1 (stereo not drawn) [Compound A0004] | – | – | – | 97.4% | 86.0% | 144.2% | – | – | – | – | – | – |
| CC1CCC(C(C)C)C(OCC(O)CN2CCCCCCC2)C1 (stereo not drawn) [Compound A0014] | – | – | – | 147.0% | 140.8% | 174.9% | – | – | – | – | – | – |
| CC1CCN(CC(O)COC2CC(C)CCC2C(C)C)CC1 (stereo not drawn) [Compound A0006] | – | – | – | 170.0% | 18.2% | 190.9% | – | – | – | – | – | – |
| CCN(CC)CC(O)COC1CC(C)CCC1C(C)C (stereo not drawn) [Compound A0032] | – | – | – | 226.9% | 133.0% | 257.8% | – | – | – | – | – | – |
| OC(COc1ccc(Br)c(F)c1)CN1CCSCC1 (stereo not drawn) [Compound A0059] | – | – | – | 99.2% | 85.7% | 129.9% | – | – | – | – | – | – |
| Cc1ccc(C(C)C)c(OCC(O)CN2CC(C)OC(C)C2)c1 (stereo not drawn) [Compound A0028] | – | – | – | 143.6% | 116.7% | 187.7% | – | – | – | – | – | – |
| CC1CCC(C(C)C)C(OCC(O)Cn2cccc2)C1 (stereo not drawn) [Compound A0038] | – | – | – | 176.7% | 107.0% | 234.5% | – | – | – | – | – | – |
| CC1CCC(C(C)C)C(OCC(O)CN2CCN(CCN3CCCCC3)CC2)C1 (stereo not drawn) [Compound A0031] | – | – | – | 178.2% | 150.9% | 297.0% | – | – | – | – | – | – |
| CC1CCC(C(C)C)C(OCC(O)CN2CCCC2)C1 (stereo not drawn) [Compound A0001] | – | – | – | 94.3% | 22.2% | 181.7% | – | – | – | – | – | – |
| COc1ccc(OCC(O)Cn2ccc3ccccc32)cc1 (stereo not drawn) [Compound A0077] | – | – | – | 300.1% | 103.5% | 334.7% | 470.5% | 170.5% | 132.3% | – | – | – |
| CC1CCC(C(C)C)C(OCC(O)CN2CCCCC2=O)C1 (stereo not drawn) [Compound A0036] | – | – | – | 144.1% | 63.2% | 167.5% | – | – | – | – | – | – |
| CC1CN(CC(O)COC2CCCCC2)CC(C)O1 (stereo not drawn) [Compound A0017] | – | – | – | 161.9% | 65.2% | 246.0% | – | – | – | – | – | – |
